Key:
[1] = system: EBV; assay: EBV viral load by qPCR for BALF5, normalized to 18S; assay type: cell-based; conditions: HH514-16, 1 μM YX968 for 18 hours, then ganciclovir 40 μM; vs no ganciclovir, N=2
Description: Ganciclovir was then added at a concentration of 40 μM. Cells were then centrifuged, DNA was extracted, and qPCR for BALF5—a single copy EBV gene—was then used to determine the viral load of EBV in the cells. The ribosomal gene 18S was used as the control to normalize for the number of cells collected. […] N=2 biological replicates.

[2] = system: EBV-positive HH514-16 Burkitt lymphoma cell line; assay: ZEBRA staining by flow cytometry (EBV lytic reactivation); assay type: cell-based; conditions: HH514-16, varying concentrations, 24 hours, vs DMSO (0.1%)
Text: Cells were harvested, fixed and permeabilized, stained with a monoclonal antibody to the viral latent-to-lytic switch protein ZEBRA (Bam Z EBV Replication Activator), and examined by flow cytometry. ZEBRA is an early lytic protein of EBV, encoded by BZLF1, that drives the lytic cascade. Cells were stained in parallel with an isotype-matched control antibody for placement of gates.

[3] = system: EBV-positive HH514-16 Burkitt lymphoma cell line; assay: qPCR of late lytic gene BFRF3; assay type: cell-based; conditions: HH514-16, varying concentrations, 48 hours, vs DMSO (0.1%), N=3
Description: Cells were harvested, RNA was extracted, RNA was converted to cDNA, and qPCR was performed. Expression of BFRF3, a late lytic gene, is increased (FIG. 2). […] Progression of the lytic cycle to late lytic gene expression indicates availability of the early gene product needed to activate ganciclovir. N=3 biological replicates.

[4] = system: HH514-16 cells; assay: Cell death after exposure; assay type: cell-based; conditions: 1 μM, 72 hours, vs DMSO (0.1%), N=2
[5] = system: lymphoma cell line BC1 latently infected with KSHV; assay type: cell-based
[6] = molecular target: HDAC1 (Homo sapiens, UniProt Q13547); assay: ZEBRA flow cytometry in cells overexpressing HDAC1-FLAG; conditions: HH514-16, 1 μM YX968, 24 hours after treatment, N=3
Chain of HDAC1 (Q13547 whole entry): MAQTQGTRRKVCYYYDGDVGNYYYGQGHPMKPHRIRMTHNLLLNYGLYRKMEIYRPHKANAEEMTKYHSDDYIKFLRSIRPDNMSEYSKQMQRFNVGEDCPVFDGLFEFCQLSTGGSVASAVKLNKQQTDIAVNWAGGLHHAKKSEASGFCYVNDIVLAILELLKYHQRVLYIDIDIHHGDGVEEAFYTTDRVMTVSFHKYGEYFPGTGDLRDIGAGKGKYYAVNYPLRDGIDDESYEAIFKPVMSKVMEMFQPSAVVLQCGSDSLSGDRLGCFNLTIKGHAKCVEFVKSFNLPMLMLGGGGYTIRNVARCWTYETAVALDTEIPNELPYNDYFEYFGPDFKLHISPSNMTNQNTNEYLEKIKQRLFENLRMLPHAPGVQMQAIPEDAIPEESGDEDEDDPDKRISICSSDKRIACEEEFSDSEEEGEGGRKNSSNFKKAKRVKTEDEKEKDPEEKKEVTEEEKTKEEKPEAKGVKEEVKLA

[7] = molecular target: HDAC2 (Homo sapiens, UniProt Q92769); assay: ZEBRA flow cytometry in cells overexpressing FLAG-HDAC2; conditions: HH514-16, 1 μM YX968 or 3 mM NaB, 24 hours after treatment, N=3
Chain of HDAC2 (Q92769 whole entry): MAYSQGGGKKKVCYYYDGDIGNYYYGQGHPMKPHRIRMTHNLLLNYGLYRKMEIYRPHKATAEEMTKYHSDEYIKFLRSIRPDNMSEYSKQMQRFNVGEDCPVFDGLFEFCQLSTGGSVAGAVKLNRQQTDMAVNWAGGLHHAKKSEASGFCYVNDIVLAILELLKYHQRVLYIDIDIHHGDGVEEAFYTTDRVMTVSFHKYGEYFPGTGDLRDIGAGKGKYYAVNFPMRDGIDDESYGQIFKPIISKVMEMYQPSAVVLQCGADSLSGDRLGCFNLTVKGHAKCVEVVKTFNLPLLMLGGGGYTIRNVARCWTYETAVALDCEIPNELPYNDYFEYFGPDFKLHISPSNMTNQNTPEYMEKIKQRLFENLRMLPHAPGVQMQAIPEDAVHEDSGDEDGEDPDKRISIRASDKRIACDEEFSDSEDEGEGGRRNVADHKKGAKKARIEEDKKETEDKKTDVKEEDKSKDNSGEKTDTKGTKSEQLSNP

[8] = system: BZLF1 promoter; assay: H3K27Ac chromatin immunoprecipitation and qPCR at the BZLF1 promoter; conditions: HH514-16, 1 μM, 12 hours, vs DMSO (0.1%)

| Structure (SMILES) | viral load of EBV [1] | levels of ZEBRA (EBV switching to lytic phase) [2] | expression of BFRF3, a late lytic gene [3] | cells left alive [4] | expression of immediate early gene RTA [5] | number of cells that expressed ZEBRA, HDAC1 overexpressing (FLAG positive) vs FLAG negative [6] | ZEBRA expression post-induction, HDAC2 overexpressing vs not overexpressing cells [7] | amount of acetylated H3K27 at the BZLF1 promoter (fold enrichment vs control IgG) [8] |
| --- | --- | --- | --- | --- | --- | --- | --- | --- |
| Nc1nc(O)c2ncn(COC(CO)CO)c2n1 [ganciclovir] | significantly lower |  |  |  |  |  |  |  |
| CCCNNC(=O)c1ccc(N2CCN(CCCCCCCC(=O)N[C@H](C(=O)N3C[C@H](O)C[C@H]3C(=O)N[C@@H](C)c3ccc(-c4scnc4C)cc3)C(C)(C)C)CC2)cc1 [YX968] |  | increased levels of ZEBRA | increased | significantly fewer cells left alive | increases in expression | no significant change | less likely to express ZEBRA | statistically significant increase |
| CCCC(=O)[O-].[Na+] [NaB, sodium butyrate, reference compound] |  |  |  |  |  |  | less likely to express ZEBRA |  |
